Measurements published in US7273885B2, “Inhibitors of serine proteases, particularly HCV NS3-NS4A protease” (Vertex Pharmaceuticals Incorporated, priority 2002, dated 2007).
Like-named read-outs stand apart in the source and are kept apart here. *1 amine or outer side, *2 acyl side, *3 side chain or, on linkers, in order; H or OH if unused. Where a SMILES comes first, the peptide text is derived from it. [ ]: non-standard residue; d: D form. The star is where a group is joined. Oic = O=C(O)[C@@H]1C[C@@H]2CCCC[C@@H]2N1; X2 = CCC[C@H](N[*:1])C(=O)C(=O)[*:2]; Chg = N[C@H](C(=O)O)C1CCCCC1; Tle = CC(C)(C)[C@H](N)C(=O)O; Hiv = CC(C)[C@H](O)C(=O)O; NHcPr = C1CC1N*

Key:
[1] = target: HCV NS3-NS4A protease (tNS3 with KK4A) (Hepatitis C virus genotype 1a, UniProt P27958); test: HCV Ki assay (HPLC microbore separation of 5AB substrate and products); assay type: biochemical
Method: HPLC Microbore Method for Separation of 5AB Substrate and Products
• Substrate: • NH2-Glu-Asp-Val-Val-(alpha)Abu-Cys-Ser-Met-Ser-Tyr-COOH
A stock solution of 20 mM 5AB (or concentration of your choice) was made in DMSO w/ 0.2M DTT. This was stored in aliquots at −20 C.
Buffer: 50 mM HEPES, pH 7.8; 20% glycerol; 100 mM NaCl
Total assay volume was 100 μL
The buffer, KK4A, DTT, and tNS3 were combined; distributed 78 μL each into wells of 96 well plate. This was incubated at 30 C for ˜5–10 min.
2.5 μL of appropriate concentration of test compound was dissolved in DMSO (DMSO only for control) and added to each well. This was incubated at room temperature for 15 min.
Initiated reaction by addition of 20 μL of 250 μM 5AB substrate (25 μM concentration is equivalent or slightly lower than the Km for 5AB).
Incubated for 20 min at 30 C.
Terminated reaction by addition of 25 μL of 10% TFA
Transferred 120 μL aliquots to HPLC vials
Separated SMSY product from substrate and KK4A by the following method:
Microbore Separation Method:
Instrumentation: Agilent 1100
• Degasser G1322A • Binary pump G1312A • Autosampler G1313A • Column thermostated chamber G1316A • Diode array detector G1315A Column:
Phenomenex Jupiter; 5 micron C18; 300 angstroms; 150×2 mm; P/O 00F-4053-B0 • Column thermostat: 40 C • Injection volume: 100 μL • Solvent A=HPLC grade water+0.1% TFA • Solvent B=HPLC grade acetonitrile+0.1% TFA
• Stop time: 17 min • Post-run time: 10 min.

[2] = system: Cells containing hepatitis C virus (HCV) replicon; test: HCV replicon cell assay (Taqman RT-PCR of HCV RNA); assay type: cell-based
Method: HCV Replicon Cell Assay Protocol
Cells containing hepatitis C virus (HCV) replicon were maintained in DMEM containing 10% fetal bovine serum (FBS), 0.25 mg per ml of G418, with appropriate supplements (media A).
On day 1, replicon cell monolayer was treated with a trypsin:EDTA mixture, removed, and then media A was diluted into a final concentration of 100,000 cells per ml wit. 10,000 cells in 100 ul were plated into each well of a 96-well tissue culture plate, and cultured overnight in a tissue culture incubator at 37° C.
On day 2, compounds (in 100% DMSO) were serially diluted into DMEM containing 2% FBS, 0.5% DMSO, with appropriate supplements (media B). The final concentration of DMSO was maintained at 0.5% throughout the dilution series.
Media on the replicon cell monolayer was removed, and then media B containing various concentrations of compounds was added. Media B without any compound was added to other wells as no compound controls.
Cells were incubated with compound or 0.5% DMSO in media B for 48 hours in a tissue culture incubator at 37° C. At the end of the 48-hour incubation, the media was removed, and the replicon cell monolayer was washed once with PBS and stored at −80° C. prior to RNA extraction.
Culture plates with treated replicon cell monolayers were thawed, and a fixed amount of another RNA virus, such as Bovine Viral Diarrhea Virus (BVDV) was added to cells in each well. RNA extraction reagents (such as reagents from RNeasy kits) were added to the cells immediately to avoid degradation of RNA. Total RNA was extracted according the instruction of manufacturer with modification to improve extraction efficiency and consistency. Finally, total cellular RNA, including HCV replicon RNA, was eluted and stored at −80° C. until further processing.
A Taqman real-time RT-PCR quantification assay was set up with two sets of specific primers and probe. One was for HCV and the other was for BVDV. Total RNA extractants from treated HCV replicon cells was added to the PCR reactions for quantification of both HCV and BVDV RNA in the same PCR well. Experimental failure was flagged and rejected based on the level of BVDV RNA in each well. The level of HCV RNA in each well was calculated according to a standard curve run in the same PCR plate. The percentage of inhibition or decrease of HCV RNA level due to compound treatment was calculated using the DMSO or no compound control as 0% of inhibition. The IC50 (concentration at which 50% inhibition of HCV RNA level is observed) was calculated from the titration curve of any given compound.

[3] = 50% inhibition of HCV RNA level, 48-hour incubation, HCV replicon cells, read-out: IC50

HCV NS3-NS4A protease (tNS3 with KK4A), sequence (P27958 1027-1208): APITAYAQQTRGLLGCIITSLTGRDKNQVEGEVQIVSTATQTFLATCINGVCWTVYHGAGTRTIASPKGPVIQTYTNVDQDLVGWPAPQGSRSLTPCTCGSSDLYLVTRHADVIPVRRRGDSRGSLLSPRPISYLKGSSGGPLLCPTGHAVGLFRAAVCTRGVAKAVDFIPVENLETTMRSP

SMILES | Ki [1] | IC50 [2, 3] | IC50 ([2]; 48 h)
CCC[C@H](NC(=O)[C@@H]1C[C@@H]2CCCC[C@@H]2N1C(=O)[C@@H](NC(=O)[C@@H](NC(=O)c1[nH]c(C)c(C)c1C(C)=O)C1CCCCC1)C(C)(C)C)C(=O)C(=O)NC1CC1 [Compound 25a] | < 500 nM | < 500 nM | 
CCC[C@H](NC(=O)[C@@H]1C[C@@H]2CCCC[C@@H]2N1C(=O)[C@@H](NC(=O)[C@@H](NC(=O)[C@@H](O)C(C)C)C1CCCCC1)C(C)(C)C)C(=O)C(=O)NC1CC1 [Compound 23a] (H-[Hiv][Chg][Tle][Oic][X2]-NHcPr) | < 500 nM | 1000 to 5000 nM | 
CCC[C@H](NC(=O)[C@@H]1C[C@@H]2CCCC[C@@H]2N1C(=O)[C@@H](NC(=O)[C@@H](NC(=O)c1[nH]c(C)c(C(C)=O)c1C)C1CCCCC1)C(C)(C)C)C(=O)C(=O)NC1CC1 [Compound 29a] | < 500 nM | 500 to 1000 nM | 
CCC[C@H](NC(=O)[C@@H]1[C@H]2CC[C@H](C2)N1C(=O)[C@@H](NC(=O)[C@@H](NC(=O)c1[nH]c(C)c(C)c1C(C)=O)C1CCCCC1)C(C)(C)C)C(=O)C(=O)NC1CC1 [Compound 65] | < 500 nM | < 500 nM | 
CCC[C@H](NC(=O)[C@@H]1C[C@@H]2CCCC[C@@H]2N1C(=O)[C@@H](NC(=O)[C@@H](NC(=O)c1ccc[nH]1)C1CCCCC1)C(C)(C)C)C(=O)C(=O)NC1CC1 [Compound 11a] | < 500 nM | < 500 nM | 
CCC[C@H](NC(=O)[C@@H]1C[C@@H]2CCCC[C@@H]2N1C(=O)[C@@H](NC(=O)[C@@H](NC(=O)c1ccoc1)C1CCCCC1)C(C)(C)C)C(=O)C(=O)NC1CC1 [Compound 26a] | < 500 nM | 1000 to 5000 nM | 
CCC[C@H](NC(=O)[C@@H]1C[C@@H](Oc2ncc(Cl)cn2)CN1C(=O)[C@@H](NC(=O)[C@@H](NC(=O)c1[nH]c(C)c(C)c1C(C)=O)C1CCCCC1)C(C)(C)C)C(=O)C(=O)NC1CC1 [Compound 67] | < 500 nM | < 500 nM | 
CCC[C@H](NC(=O)[C@@H]1C[C@@H]2CCCC[C@@H]2N1C(=O)[C@@H](NC(=O)[C@@H](NC(=O)c1cc([N+](=O)[O-])c[nH]1)C1CCCCC1)C(C)(C)C)C(=O)C(=O)NC1CC1 [Compound 12a] | < 500 nM | < 500 nM | 
CCC[C@H](NC(=O)[C@@H]1C[C@@H]2CCCC[C@@H]2N1C(=O)[C@@H](NC(=O)[C@@H](NC(=O)c1cc2cc(F)ccc2[nH]1)C1CCCCC1)C(C)(C)C)C(=O)C(=O)NC1CC1 [Compound 18a] | < 500 nM | < 500 nM | 
CC(=O)c1c(C(=O)N[C@H](C(=O)N[C@H](C(=O)N2[C@H](C(=O)N[C@@H](CC(F)F)C(=O)C(=O)NC3CC3)C[C@@H]3CCCC[C@@H]32)C(C)(C)C)C2CCCCC2)[nH]c(C)c1C [Compound 61a] | < 500 nM | < 500 nM | 
CCC[C@H](NC(=O)[C@@H]1C[C@@H]2CCCC[C@@H]2N1C(=O)[C@@H](NC(=O)[C@@H](NC(=O)c1cc(Cl)c(Cl)[nH]1)C1CCCCC1)C(C)(C)C)C(=O)C(=O)NC1CC1 [Compound 43a] | < 500 nM | < 500 nM | 
CCC[C@H](NC(=O)[C@@H]1C[C@@H]2CCCC[C@@H]2N1C(=O)[C@@H](NC(=O)[C@@H](NC(=O)c1[nH]ncc1[N+](=O)[O-])C1CCCCC1)C(C)(C)C)C(=O)C(=O)NC1CC1 [Compound 13a] | < 500 nM | 500 to 1000 nM | 
CCC[C@H](NC(=O)[C@@H]1C[C@@H]2CCCC[C@@H]2N1C(=O)[C@@H](NC(=O)[C@@H](NC(=O)c1[nH]c(C)c(C(C)=O)c1C#N)C1CCCCC1)C(C)(C)C)C(=O)C(=O)NC1CC1 [Compound 52a] | < 500 nM | < 500 nM | 
CCC[C@H](NC(=O)[C@@H]1C[C@@H]2CCCC[C@@H]2N1C(=O)[C@@H](NC(=O)[C@@H](NC(=O)c1cc(CC)c(C(C)=O)[nH]1)C1CCCCC1)C(C)(C)C)C(=O)C(=O)NC1CC1 [Compound 42a] | < 500 nM | < 500 nM | 
CCC[C@H](NC(=O)[C@@H]1C[C@@H]2CCCC[C@@H]2N1C(=O)[C@@H](NC(=O)[C@@H](NC(=O)c1cc(C(=O)CC)c[nH]1)C1CCCCC1)C(C)(C)C)C(=O)C(=O)NC1CC1 [Compound 44a] | < 500 nM | < 500 nM | 
CCC[C@H](NC(=O)[C@@H]1C[C@@H]2CCCC[C@@H]2N1C(=O)[C@@H](NC(=O)[C@@H](NC(=O)c1cc(C)c(C(C)=O)[nH]1)C1CCCCC1)C(C)(C)C)C(=O)C(=O)NC1CC1 [Compound 37a] | < 500 nM | < 500 nM | 
CCC[C@H](NC(=O)[C@@H]1C[C@@H]2CCCC[C@@H]2N1C(=O)[C@@H](NC(=O)[C@@H](NC(=O)c1cc(C(C)(C)C)n[nH]1)C1CCCCC1)C(C)(C)C)C(=O)C(=O)NC1CC1 [Compound 16a] | < 500 nM | 1000 to 5000 nM | 
CCC[C@H](NC(=O)[C@@H]1C[C@@H]2CCCC[C@@H]2N1C(=O)[C@@H](NC(=O)[C@@H](NC(=O)c1ccccn1)C1CCCCC1)C(C)(C)C)C(=O)C(=O)NC1CC1 [Compound 30a] | 500 to 1000 nM | 1000 to 5000 nM | 
CC(=O)c1c(C(=O)N[C@H](C(=O)N[C@H](C(=O)N2[C@H](C(=O)NC(CCC(F)(F)F)C(=O)C(=O)NC3CC3)C[C@@H]3CCCC[C@@H]32)C(C)(C)C)C2CCCCC2)[nH]c(C)c1C (stereo partly drawn) [Compound 45a] | < 500 nM | < 500 nM | 
C=CCNC(=O)C(=O)[C@H](CCC)NC(=O)[C@@H]1C[C@@H]2CCCC[C@@H]2N1C(=O)[C@@H](NC(=O)[C@@H](NC(=O)c1cnccn1)C1CCCCC1)C(C)(C)C [Compound 51a] | < 500 nM | 500 to 1000 nM | 
CCCC(NC(=O)[C@@H]1C[C@@H]2CCCC[C@@H]2N1C(=O)[C@@H](NC(=O)[C@@H](NC(=O)c1cnccn1)C1CCCCC1)C(C)(C)C)C(=O)C(=O)NC1CC1 (stereo partly drawn) [Compound 4a] | < 500 nM | 500 to 1000 nM | 
CCC[C@H](NC(=O)[C@@H]1C[C@@H]2CCCC[C@@H]2N1C(=O)[C@@H](NC(=O)[C@@H](NC(=O)c1ccc2cccnc2n1)C1CCCCC1)C(C)(C)C)C(=O)C(=O)NC1CC1 [Compound 36a] | < 500 nM | 1000 to 5000 nM | 
CCC[C@H](NC(=O)[C@@H]1C[C@@H]2CCCC[C@@H]2N1C(=O)[C@@H](NC(=O)[C@@H](NC(=O)[C@](C)(O)c1ccccc1)C1CCCCC1)C(C)(C)C)C(=O)C(=O)NC1CC1 [Compound 20a] | < 500 nM | 500 to 1000 nM | 
CCCC(NC(=O)[C@@H]1C[C@@H]2CCCC[C@@H]2N1C(=O)[C@@H](NC(=O)[C@@H](NC(=O)c1cnccn1)C1CCCCC1)C(C)C)C(=O)C(=O)NC1CC1 (stereo partly drawn) [Compound 3a] | < 500 nM |  | 1000 to 5000 nM
CCC[C@H](NC(=O)[C@@H]1C[C@@H]2CCCC[C@@H]2N1C(=O)[C@@H](NC(=O)[C@@H](NC(=O)c1cnccn1)C1CCCCC1)C(C)(C)C)C(=O)C(=O)N[C@@H]1CCOC1 [Compound 47a] | 500 to 1000 nM | 1000 to 5000 nM | 
CCC[C@H](NC(=O)[C@@H]1C[C@@H]2CCCC[C@@H]2N1C(=O)[C@@H](NC(=O)[C@@H](NC(=O)c1cnccn1)C1CCCCC1)C(C)(C)C)C(=O)C(=O)NC1CC1 [Compound 10a] | < 500 nM | 500 to 1000 nM | 
CCC[C@@H](NC(=O)[C@@H]1C[C@@H]2CCCC[C@@H]2N1C(=O)[C@@H](NC(=O)[C@@H](NC(=O)c1[nH]c(C)c(C)c1C(C)=O)C1CCCCC1)C(C)(C)C)C(=O)C(=O)NC1CC1 [Compound 41a] | 1000 to 5000 nM | < 500 nM | 
